Experimental data reported in patent US11259522B2, “Control of resistant pests” (priority 2017, dated 2022).
In brackets after ≈: the same amount, converted by molar mass. Several values for one entry are separate records, joined by “and”; a condition that tells them apart may be missing. Equal values may be shown once. Read-outs that look alike come from different tables or passages of the source.

Experiments:
[1] = test system: Rhipicephalus microplus larvae, susceptible non-resistant field strain (NRFS); assay: Larval packet test (LPT), cattle tick larvae, susceptible strain; type: in vivo; details: for LC50 (ppm) / LC99 (ppm): NRFS, Probit analysis; for mortality at 10000 ppm: 10,000 ppm; for mortality at 2.5 ppm: 2.500 ppm; for mortality at 5000 ppm: 5,000 ppm
Procedure: The larval packet test (LPT) is a modification of that first described by Stone and Haydock (1962, Bull. Entomol. Res., 563-578, http://dx.doi.org/10.1017/5000748530004832X) for evaluation of field resistance in cattle tick (Rhipicephalus microplus) larvae.
The first LPT assay was conducted to identify the potential range of flavesone acaricidal activity against larvae of a susceptible non-resistant field strain (NRFS) of R. microplus as a reference strain using a wide range of concentrations (1 in 10 in series).
The test compound, flavesone, 6-isobutyryl-2,2,4,4-tetramethylcyclohexane-1,3,5-trione, 96.7%, was used. As its volatility/evaporative properties were unknown, the LPT method was modified to incorporate the use of suitably-sized polyethylene plastic sheets to envelop the larval packets, minimizing exposure of the test active to the atmosphere.
In addition, the use of the solvent trichloroethylene (TCE) was removed to avoid the time required for evaporation in the preparation of test papers. The test solutions were prepared in olive oil only at the diluent and the papers immediately enveloped in the plastic sheets and sealed with bulldog clips to minimize evaporation.
A stock solution with a concentration of 100,000 ppm (10%) flavesone was prepared in olive oil as the diluent (1.035 mL flavesone (96.7%) to 8.965 mL olive oil) and then further diluted 1 in 10 in series to also give 10,000 ppm, 1,000 ppm, 100 ppm, 10 ppm and 1 ppm concentration. The negative control was olive oil only. No positive control was included in this experiment. Due to the viscosity of the olive oil, all solutions were prepared using reverse pipetting technique.
Filter papers (75 mm×85 mm Whatman® No. 541), with grid patterns, were impregnated on ½ of the paper with 225 μL of each solution using a micro-pipette and immediately folded in half, enveloped in polyethylene plastic and sealed with 3 bulldog clips. The impregnated papers were kept at room temperature on aluminium trays for a minimum of 60 minutes to allow for dispersal across the grid pattern of the paper prior to aliquoting of larvae. The packets were prepared in duplicate for each concentration, including the negative control.
An 8 dram vial containing approximately 20,000 hatched 7-21 day old NRFS larvae (about 1 g eggs) was opened and set up on a moated tray with a small amount of detergenated water, about 15 to 30 minute before use. Only larvae that migrated to the top of the vial were used in the assay.
Aliquots of approximately 100 larvae were placed into each packet using plastic disposable forceps and the packets resealed and incubated and 27° C. and 85% relative humidity (RH).
After 24 hours, the larval packets were opened and the numbers of dead and live larvae were counted under a magnification lamp. Percentage mortality was calculated and, where applicable, corrected using Abbott's Formula (Abbott, 1925, J. Economic Entomology, 18:256-257): […]
LC50 and LC99 values were determined by Probit mortality vs log concentration analysis. Probit values were derived from “Transformation of Percentages to Probit's Tables” published by Fisher R. A. and Yates F. (1938).
The LPT Assay of Example 1 was repeated using a narrow range of concentrations, 1 in 2 series, of flavesone to determine LC50 and LC99 values against the susceptible NRFS and the multi-resistant Tiaro reference strain.
The stock solution of flavesone (100,000 ppm) was diluted 1 in 10 with olive oil (1 mL to 9 mL diluent) to give 10,000 ppm, which was then further diluted 1 in 2 in series (5 mL to 5 mL diluent) to give 5,000 ppm, 2,500 ppm, 1,250 ppm, 625 ppm, 312.5 ppm and 156.25 ppm concentrations. […]

[2] = test system: Rhyzopertha dominica susceptible strain QRD14; assay: Grain protectant bioassay on treated wheat, susceptible lesser grain borer; type: in vivo; details: for 14 day Adult Mortality No. dead/total / F1 Progeny count No. dead/total: Example 8, QQRD14, replicates A, B, C; for Progeny reduction (%): vs untreated control
From the text: The experiment of Example 5 was repeated using a laboratory reared susceptible strain QQRD14 of R. dominica and different concentrations of flavesone to determine efficacy.

[3] = test system: Cryptolestes ferrugineus strain QCF73 (resistant to phosphine); assay: Grain protectant bioassay on treated wheat, C. ferrugineus resistant; type: in vivo; details: for Progeny reduction (%): vs untreated control
[4] = test system: Sitophilus oryzae susceptible strain LS2; assay: Grain protectant bioassay on treated wheat, S. oryzae susceptible; type: in vivo; details: for Progeny reduction (%): vs untreated control
[5] = test system: Sitophilus oryzae strain QSO393 (resistant to fenitrothion); assay: Grain protectant bioassay on treated wheat, S. oryzae resistant; type: in vivo; details: for Progeny reduction (%): vs untreated control
[6] = test system: Aedes aegypti Liverpool strain (insecticide susceptible, LVP) L3 larvae; assay: Mosquito larval dose response assay, LVP strain; details: read-out: Lethal Concentration (LC50) LVP Strain
[7] = Rhipicephalus microplus, 24 h, Example 2
[8] = Rhipicephalus microplus, 24 h, Example 3
[9] = Rhipicephalus microplus, 48 h, Example 4
[10] = Sitophilus oryzae, 336 h, 25 mg/kg, 2 weeks, mean ± SE, read-out: Adult mortality (%)
[11] = Sitophilus oryzae, 336 h, 60 mg/kg, 2 weeks, mean ± SE, read-out: Adult mortality (%)

Q: What does the source list for CC(C)C(=O)C1C(=O)C(C)(C)C(=O)C(C)(C)C1=O [Flavesone, 1-isobutyroyl-3,3,5,5-tetramethylcyclohexane-2,4,6-trione]?
A: LC50 (ppm) ([1]; Example 1, 24 hours): 171 ppm; LC99 (ppm) ([1]; Example 1, 24 hours): 3346 ppm; LC50 (ppm) ([1]; Example 2, 24 hours): 690 ppm; LC99 (ppm) ([1]; Example 2, 24 hours): 1109 ppm; LC50 (ppm) ([1]; Example 3, 24 hours): 610 ppm; LC99 (ppm) ([1]; Example 3, 24 hours): 1050 ppm; LC50 (ppm) ([1]; Example 4, 48 hours): 526 ppm; LC99 (ppm) ([1]; Example 4, 48 hours): 923 ppm; mortality at 1 ppm ([1]; Rhipicephalus microplus, 24 h, Example 1, 1 ppm): 0%; mortality at 10 ppm ([1]; Rhipicephalus microplus, 24 h, Example 1, 10 ppm): 0.62%; mortality at 100 ppm ([1]; Rhipicephalus microplus, 24 h, Example 1, 100 ppm): 1.82%; mortality at 1000 ppm ([1]; Rhipicephalus microplus, 24 h, Example 1, 1,000 ppm): 97%; mortality at 10000 ppm ([1]; Rhipicephalus microplus, 24 h, Example 1): 100%; mortality at 100000 ppm ([1]; Rhipicephalus microplus, 24 h, Example 1, 100,000 ppm): 100%; mortality at 2.5 ppm [1, 7]: 100%; mortality at 156.25 ppm ([1]; Rhipicephalus microplus, 24 h, Example 2, 156.25 ppm): 0%; mortality at 312.5 ppm [1, 7]: 0%; mortality at 625 ppm [1, 7]: 11.8%; mortality at 1250 ppm ([1]; Rhipicephalus microplus, 24 h, Example 2, 1,250 ppm): 100%; mortality at 5000 ppm [1, 7]: 100%; mortality at 10000 ppm [1, 7]: 100%; mortality at 2.5 ppm [1, 8]: 100%; mortality at 312.5 ppm [1, 8]: 1.28%; mortality at 625 ppm [1, 8]: 11.8%; mortality at 1250 ppm ([1]; Rhipicephalus microplus, 24 h, Example 3, 1,250 ppm): 100%; mortality at 5000 ppm [1, 8]: 100%; mortality at 312.5 ppm [1, 9]: 2.17%; mortality at 625 ppm [1, 9]: 66.8%; mortality at 1250 ppm ([1]; Rhipicephalus microplus, 48 h, Example 4, 1250 ppm): 100%; 14 day Adult Mortality No. dead/total ([2]; 5 ppm on wheat): 0/50; F1 Progeny count No. dead/total ([2]; 5 ppm on wheat): 4/930 and 4/999 and 1/866; 14 day Adult Mortality No. dead/total ([2]; 10 ppm on wheat): 6/50 (2×) and 8/50; F1 Progeny count No. dead/total ([2]; 10 ppm on wheat): 3/446 and 0/444 and 3/487; 14 day Adult Mortality No. dead/total ([2]; 25 ppm on wheat): 50/50; F1 Progeny count No. dead/total ([2]; 25 ppm on wheat): 0/0; 14 day Adult Mortality No. dead/total ([2]; 50 ppm on wheat): 50/50; F1 Progeny count No. dead/total ([2]; 50 ppm on wheat): 0/0; 14 day Adult Mortality No. dead/total ([2]; 100 ppm on wheat): 50/50; F1 Progeny count No. dead/total ([2]; 100 ppm on wheat): 0/0; Live adult progeny ([2]; QRD14, 25 mg/kg, mean ± SE): 0.0 ± 0.0; Progeny reduction (%) ([2]; QRD14, 25 mg/kg): 100%; Live adult progeny ([2]; QRD14, 60 mg/kg, mean ± SE): 0.0 ± 0.0; Progeny reduction (%) ([2]; QRD14, 60 mg/kg): 100%; mortality at 25 mg/kg ([2]; Rhyzopertha dominica, 336 h, QRD14, 25 mg/kg, 2 weeks, mean ± SE, read-out: Adult mortality (%)): 98 ± 1.2%; mortality at 60 mg/kg ([2]; Rhyzopertha dominica, 336 h, QRD14, 60 mg/kg, 2 weeks, mean ± SE, read-out: Adult mortality (%)): 100%; Live adult progeny ([3]; 25 mg/kg, mean ± SE): 83.7 ± 6.5; Progeny reduction (%) ([3]; 25 mg/kg): 75.7%; Progeny reduction (%) ([3]; 25 mg/kg, listed as flavesone): ~75%; Live adult progeny ([3]; 60 mg/kg, mean ± SE): 0.0 ± 0.0; Progeny reduction (%) ([3]; 60 mg/kg): 100%; mortality at 25 mg/kg ([3]; Cryptolestes ferrugineus, 336 h, 25 mg/kg, 2 weeks, mean ± SE, read-out: Adult mortality (%)): 3.3 ± 1.3%; mortality at 60 mg/kg ([3]; Cryptolestes ferrugineus, 336 h, 60 mg/kg, 2 weeks, mean ± SE, read-out: Adult mortality (%)): 62%; Live adult progeny ([4]; 25 mg/kg, mean ± SE): 735.3 ± 60.6; Live adult progeny ([4]; 60 mg/kg, mean ± SE): 355.3 ± 64.7; Progeny reduction (%) ([4]; 60 mg/kg): 50.3%; Progeny reduction (%) ([4]; 60 mg/kg, listed as flavesone): 50%; mortality at 25 mg/kg [4, 10]: 1.3 ± 0.7%; mortality at 60 mg/kg [4, 11]: 4 ± 1.2%; Live adult progeny ([5]; 25 mg/kg, mean ± SE): 572.7 ± 100.9; Progeny reduction (%) ([5]; 25 mg/kg): 6.1%; Live adult progeny ([5]; 60 mg/kg, mean ± SE): 430.0 ± 51.0; Progeny reduction (%) ([5]; 60 mg/kg): 29.5%; Progeny reduction (%) ([5]; 60 mg/kg, listed as flavesone): 29%; mortality at 25 mg/kg [5, 10]: 0.7 ± 0.7%; mortality at 60 mg/kg [5, 11]: 0.7 ± 0.7%; LC50 ([6]; 24 h): 40.9 µg/mL (≈ 162 µM); LC50 ([6]; 48 h): 40.5 µg/mL (≈ 161 µM); LC50 ([6]; 72 h): 39.7 µg/mL (≈ 157 µM)
